In patent US11026958B2, “Substituted 6-membered aryl or heteroaryl allosteric modulators of nicotinic acetylcholine receptors” (Merck Sharp & Dohme Corp., priority 2016, dated 2021) one finds EC50 data, which are given here for 26 compounds.

Where two headings read alike, the source gives them in different places.

The assay has as its target human α7 nAChR (Homo sapiens (Human), UniProt P36544). Put plainly: Automated patch-clamp electrophysiology functional assay (Assay A), IonFlux HT. The settings on record: HEK cell line stably expressing human RIC-3 and human α7, whole-cell population patch, 40 μM acetylcholine. The format is cell-based. The protocol:
The α7 nAChR positive allosteric modulator (PAM) activity of the present compounds may be tested using assays known in the art. The α7 nAChR PAMs described herein have activities in an automated patch-clamp electrophysiology functional assay as described in the examples. The assay was performed using the IonFlux HT in a whole-cell, population patch configuration. See Golden et al. Assay Drug Dev. Technol. (2011) 9:608-619. The compounds were assessed for their ability to modulate the function of the human α7 nAChR stably expressed in a HEK cell line both in the presence, and in the absence of the natural α7 agonist acetylcholine. By performing a series of such measurements at different concentrations, the effective concentration of the α7 nAChR PAMs (EC50) was determined. See Spencer et al. Assay Drug Dev. Technol. (2012) 10:313-324.
Automated patch-clamp electrophysiology was performed using the IonFlux HT (Fluxion Biosciences Inc., San Francisco, Calif.) in the whole-cell, population patch configuration. Test compounds were assessed for their ability to modulate the function of the α7 nicotinic acetylcholine receptor both in the presence, and in the absence of the natural α7 agonist acetylcholine. A HEK cell line stably expressing both human RIC-3 and human α7 (PrecisION hnAChR α7/RIC-3, Eurofins Pharma, St. Charles, Mo.) was cultured in 175 cm^2 triple-layer tissue culture flasks to no more than 90% confluency in DMEM/F-12 growth media supplemented with 10% heat-inactivated fetal bovine serum, 1% non-essential amino acids, 0.625 μg/mL Puromycin, and 400 μg/mL Geneticin. Immediately prior to assay, cells were detached by first aspirating growth media, rinsing with Dulbecco's phosphate buffered saline, and then adding 10 mL of Accutase (Innovative Cell Technologies, San Diego, Calif.) to the flask and then incubating at 37° C. for 5 minutes. Detached cells were then recovered by the addition of 40 mL of CHO-serum-free media supplemented with 25 mM HEPES, and rocked gently in a 50 mL conical tube for 20 minutes prior to patch-clamp assay. After recovery, cells were pelleted by centrifugation at 1,000 RPM for 1 minute in a compact bench top centrifuge; recovery media was aspirated and cells were resuspended in external recording solution (150 mM NaCl, 5 mM KCl, 2 mM CaCl2, 1 mM MgCl2, 10 mM HEPES, 12 mM dextrose) to a density of 5.0×10^6 cells/mL. The cell suspension was added to the cell inlet wells on an IonFlux HT population patch plate which had previously been rinsed and primed with deionized H2O. Test compounds were serially diluted in DMSO and then resuspended to the final test concentration in external recording solution, with, or without 40 μM acetylcholine added to the external recording solution; test compounds were then transferred to the IonFlux HT population patch plate. Internal recording solution (110 mM TrisPO4, 28 mM TrisBase, 0.1 mM CaCl2, 2 mM MgCl2, 11 mM EGTA, 4 mM MgATP) was added to the internal recording solution inlet wells on the IonFlux HT patch plate previously loaded with cells and test compounds, and the plate loaded into the IonFlux HT instrument. A protocol was executed on the IonFlux HT to trap the cells, break into the cells, and establish the whole-cell recording configuration; cells were voltage-clamped at a holding potential of −60 mV for the duration of the experiment, all experiments were conducted at room temperature, and the IonFlux HT injection pressure was 8 psi for solution applications. Upon establishing the whole-cell configuration, external recording solution was perfused into the recording chambers for 120 seconds and then 40 μM acetylcholine was applied for 1 second and immediately washed off with external recording solution for 60 seconds. The 40 μM acetylcholine-evoked α7 current served as the current response to which subsequent test compound effects, in the presence, or in the absence of 40 μM acetylcholine would be quantified relative to. […]
For orientation: Patch clamp records ionic current or voltage across a cell membrane.

human α7 nAChR, sequence (P36544 23-502): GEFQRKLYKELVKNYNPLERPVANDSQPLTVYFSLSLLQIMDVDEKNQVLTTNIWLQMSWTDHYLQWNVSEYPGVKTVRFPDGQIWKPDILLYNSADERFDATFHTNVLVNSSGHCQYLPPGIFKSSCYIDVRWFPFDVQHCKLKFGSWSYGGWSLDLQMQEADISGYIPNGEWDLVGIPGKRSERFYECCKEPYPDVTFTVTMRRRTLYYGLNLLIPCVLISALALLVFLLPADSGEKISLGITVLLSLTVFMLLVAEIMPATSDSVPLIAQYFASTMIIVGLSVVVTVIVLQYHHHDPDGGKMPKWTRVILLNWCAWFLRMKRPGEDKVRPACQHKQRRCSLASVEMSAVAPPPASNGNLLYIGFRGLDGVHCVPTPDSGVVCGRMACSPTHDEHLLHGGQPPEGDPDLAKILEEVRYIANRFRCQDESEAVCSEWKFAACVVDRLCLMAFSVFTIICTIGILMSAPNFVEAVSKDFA

Regarding `NS(=O)(=O)c1ccc([C@@H]2C[C@H]2c2nccc(-c3cccc(F)c3)n2)cc1` (single isomer, unassigned) [Example C4, 4-{trans-2-[4-(3-fluorophenyl)pyrimidin-2-yl]cyclopropyl}benzenesulfonamide], the EC50 (read-out: α7 nAChR EC50) stood at 1900 nM and the EC50 (read-out: α7 nAChR Potency) fell in the range of 500 to 5000 nM.
In the case of `NS(=O)(=O)c1ccc([C@@H]2C[C@H]2c2ccnc(C3CCC3)c2)cc1` (racemic) [Example E3, 4-[trans-2-(2-Cyclobutylpyridin-4-yl)cyclopropyl]benzenesulfonamide], the EC50 was 500 nM (read-out: α7 nAChR EC50) and 100 to 500 nM (read-out: α7 nAChR Potency).
As to `NS(=O)(=O)c1ccc(C2CC2c2cccc(-n3cncn3)c2)cc1` (racemic) [Example F2, 4-{trans-2-[3-(1H-1,2,4-Triazol-1-yl)phenyl]cyclopropyl}benzenesulfonamide], the EC50 is, setting by setting: (read-out: α7 nAChR EC50) 5200 nM; (read-out: α7 nAChR Potency) 5000 to 50000 nM.
As for `CC(C)c1cncc(C2CC2c2ccc(S(N)(=O)=O)cc2)n1` (racemic) [Example B3, 4-{trans-2-[6-(Propan-2-yl)pyrazin-2-yl]cyclopropyl}benzenesulfonamide], the EC50 (read-out: α7 nAChR Potency) was in the range of 500 to 5000 nM.
As for `CC(C)c1ccnc(C2CC2c2ccc(S(N)(=O)=O)cc2)c1` (single isomer, unassigned) [Example A2, 4-{trans-2-[4-(Propan-2-yl)pyridin-2-yl]cyclopropyl}benzenesulfonamide], the EC50 (read-out: α7 nAChR EC50) is 410 nM and the EC50 (read-out: α7 nAChR Potency) is 100 to 500 nM.
Taken in the same sequence, the figures for `NS(=O)(=O)c1ccc(C2CC2c2ccnc(Nc3ccccc3)n2)cc1` (racemic) [Example D11, 4-{trans-2-[2-(Phenylamino)pyrimidin-4-yl]cyclopropyl}benzenesulfonamide] were 3300 nM and 500 to 5000 nM.
On to `CC(C)c1cc(C2CC2c2ccc(S(N)(=O)=O)cc2)ccn1` (racemic) [Example E1, 4-{trans-2-[2-(Propan-2-yl)pyridin-4-yl]cyclopropyl}benzenesulfonamide], for which the EC50 (read-out: α7 nAChR Potency) lay within 500 to 5000 nM.
On to `CN(C)c1nccc(C2CC2c2ccc(S(N)(=O)=O)cc2)n1` (racemic) [Example D1, 4-{trans-2-[2-(Dimethylamino)pyrimidin-4-yl]cyclopropyl}benzenesulfonamide], for which the EC50 (read-out: α7 nAChR EC50) came to 2900 nM and the EC50 (read-out: α7 nAChR Potency) fell in the range of 500 to 5000 nM.
Taken in the same sequence, the figures for `NS(=O)(=O)c1ccc([C@@H]2C[C@H]2c2ccc(-n3cccn3)nc2)cc1` (racemic) [Example G3, 4-{trans-2-[6-(1H-Pyrazol-1-yl)pyridin-3-yl]cyclopropyl}benzenesulfonamide] were 870 nM and 500 to 5000 nM.
Taken in the same sequence, the figures for “tert-Butyl 4-{4-[trans-2-(4-sulfamoylphenyl)cyclopropyl]pyrimidin-2-yl}piperazine-1-carboxylate [Example D4]” were 720 nM and 500 to 5000 nM.
On to `CC(C)c1ccc(C2CC2c2ccc(S(N)(=O)=O)cc2)nc1` (single isomer, unassigned) [Example A5, 4-{trans-2-[5-(Propan-2-yl)pyridin-2-yl]cyclopropyl}benzenesulfonamide], for which the EC50 (read-out: α7 nAChR Potency) fell in the range of 500 to 5000 nM.
`NS(=O)(=O)c1ccc([C@@H]2C[C@H]2c2cccc(-n3cccn3)n2)cc1` (racemic) [Example A8, 4-{trans-2-[6-(1H-Pyrazol-1-yl)pyridin-2-yl]cyclopropyl}benzenesulfonamide]: the EC50 reads like this: (read-out: α7 nAChR EC50) 3300 nM; (read-out: α7 nAChR Potency) 500 to 5000 nM.
For the compound `CC(C)Oc1ccc(C2CC2c2ccc(S(N)(=O)=O)cc2)cn1` (racemic) [Example G4, 4-{trans-2-[6-(Propan-2-yloxy)pyridin-3-yl]cyclopropyl}benzenesulfonamide], the EC50 was 1000 nM (read-out: α7 nAChR EC50) and 500 to 5000 nM (read-out: α7 nAChR Potency).
Taken in the same sequence, the figures for `NS(=O)(=O)c1ccc(C2CC2c2cccc(C3CCCC3)n2)cc1` (single isomer, unassigned) [Example 3, 4-[trans-2-(6-Cyclopentylpyridin-2-yl)cyclopropyl]benzenesulfonamide] were 1500 nM and 500 to 5000 nM.
With `NS(=O)(=O)c1ccc([C@@H]2C[C@H]2c2ccc(N3CCCC3)nc2)cc1` (relative stereo) [Example 6, 4-{trans-2-[6-(Pyrrolidin-1-yl)pyridin-3-yl]cyclopropyl}benzenesulfonamide], the EC50 is 720 nM (read-out: α7 nAChR EC50) and 500 to 5000 nM (read-out: α7 nAChR Potency).
Taken in the same sequence, the figures for `CC(C)c1ccc(C2CC2c2ccc(S(N)(=O)=O)cc2)nc1` (single isomer, unassigned) [Example A3, 4-{trans-2-[5-(Propan-2-yl)pyridin-2-yl]cyclopropyl}benzenesulfonamide] were 550 nM and 500 to 5000 nM.
As to `CC(C)c1ccc(C2CC2c2ccc(S(N)(=O)=O)cc2)nc1` (racemic) [Example A6, 4-{trans-2-[5-(Propan-2-yl)pyridin-2-yl]cyclopropyl}benzenesulfonamide], the EC50 was 700 nM (read-out: α7 nAChR EC50) and 500 to 5000 nM (read-out: α7 nAChR Potency).
In the case of “4-(trans-2-{2-[(4-Fluorophenyl)amino]pyrimidin-4-yl}cyclopropyl)benzenesulfonamide [Example D8]”, the EC50 is 3800 nM (read-out: α7 nAChR EC50) and 500 to 5000 nM (read-out: α7 nAChR Potency).
Regarding `CC(C)c1ccc(C2C(c3ccc(S(N)(=O)=O)cc3)C2[Si](C)(C)C)cn1` (stereo not drawn) [Example B1, 4-{2-[6-(Propan-2-yl)pyridin-3-yl]-3-(trimethylsilyl)cyclopropyl}benzenesulfonamide], the EC50 reads like this: (read-out: α7 nAChR EC50) 1600 nM; (read-out: α7 nAChR Potency) 500 to 5000 nM.
For the compound `CC(C)c1ccnc(C2CC2c2ccc(S(N)(=O)=O)cc2)n1` (single isomer, unassigned) [Example 5, 4-{trans-2-[4-(Propan-2-yl)pyrimidin-2-yl]cyclopropyl}benzenesulfonamide], the EC50 (read-out: α7 nAChR EC50) worked out at 410 nM and the EC50 (read-out: α7 nAChR Potency) was 100 to 500 nM.
Consider `NS(=O)(=O)c1ccc(C2CC2c2ccc(C3CCCC3)cn2)cc1` (single isomer, unassigned) [Example 4, 4-[trans-2-(5-Cyclopentylpyridin-2-yl)cyclopropyl]benzenesulfonamide], for which the EC50 (read-out: α7 nAChR EC50) is 1000 nM and the EC50 (read-out: α7 nAChR Potency) lay in the range of 500 to 5000 nM.
Regarding `NS(=O)(=O)c1ccc([C@H]2[C@H](c3nccc(-c4cccc(F)c4)n3)C2(F)F)cc1` [Example C6, 4-{(1R,3R)-2,2-Difluoro-3-[4-(3-fluorophenyl)pyrimidin-2-yl]cyclopropyl}benzenesulfonamide], the EC50 reads like this: (read-out: α7 nAChR EC50) 1600 nM; (read-out: α7 nAChR Potency) 500 to 5000 nM.
Taken in the same sequence, the figures for “4-{trans-2-[2-(Pyrrolidin-1-yl)pyrimidin-4-yl]cyclopropyl}benzenesulfonamide [Example D7]” were 900 nM and 500 to 5000 nM.
With `NS(=O)(=O)c1ccc([C@@H]2C[C@H]2c2cccc(C3CCOCC3)n2)cc1` (racemic) [Example A9, 4-{trans-2-[6-(Tetrahydro-2H-pyran-4-yl)pyridin-2-yl]cyclopropyl}benzenesulfonamide], the EC50 is 5600 nM (read-out: α7 nAChR EC50) and 5000 to 50000 nM (read-out: α7 nAChR Potency).
On to `NS(=O)(=O)c1ccc([C@@H]2C[C@H]2c2ccnc(N3CCOCC3)n2)cc1` (relative stereo) [Example 2, 4-{trans-2-[2-(Morpholin-4-yl)pyrimidin-4-yl]cyclopropyl}benzenesulfonamide], for which, where the note is “read-out: α7 nAChR Potency”, the EC50 was in the range of 500 to 5000 nM.
As to `CC(C)c1ccc(C2CC2c2ccc(S(N)(=O)=O)cc2)nn1` (racemic) [Example B2, 4-{trans-2-[6-(Propan-2-yl)pyridazin-3-yl]cyclopropyl}benzenesulfonamide], the EC50 reads like this: (read-out: α7 nAChR EC50) 8800 nM; (read-out: α7 nAChR Potency) 5000 to 50000 nM.
